Test results published in patent US20190209506A1, “METHODS OF REDUCING OR PREVENTING OXIDATION OF LDL OR LIPID MEMBRANES IN A SUBJECT IN NEED THEREOF” (Amarin Pharmaceuticals Ireland Limited, priority 2018, published 2019).

How the values were obtained:
[1] = Glucose-induced membrane lipid peroxidation (LOOH, CHOD-iodide assay) in DLPC/cholesterol vesicles (Examples 4, 5); format: biochemical; settings: for effect on LOOH formation / lipid peroxidation / inhibition of the peroxidative effects of glucose (LOOH formation): 1:30 drug-to-phospholipid mole ratio; for effect on LOOH formation / lipid peroxidation: 72- and 96-hour time points
Procedure: All test compounds were further diluted in ethanol or aqueous buffer as needed. Glucose was prepared in saline buffer (0.5 mM HEPES, 154 mM NaCl, pH 7.3) at 11.0 mM (200 mg/dL). CHOD-iodide color reagent (stock) was prepared, with slight modification, as described by from El-Saadani et al. (J. […] Samples were shell-dried under nitrogen gas and placed under vacuum for 1 h to remove residual solvent. […] Lipid suspensions were then vortexed for 3 min at ambient temperature to form MLVs. All MLV samples were subjected to time-dependent autoxidation by incubating at 37° C. in an uncovered, shaking water bath. This method allows lipid peroxidation to occur gradually without requiring the use of exogenous initiators. Small aliquots (5-100 μL) of each sample were removed, immediately following MLV preparation (0 hour) and after exposing samples to oxidative conditions for 72 or 96 hour, and combined with 1.0 mL of activated CHOD-iodide color reagent. Aliquot volume was reduced with each successive time point to ensure that spectrophotometric readings were within the optimal adsorption range. Test samples were covered and incubated in darkness at room temperature for at least 4 hr. Sample absorbances were then measured against a CHOD blank at 365 nm using a Beckman DU-640 spectrophotometer. The CHOD colorimetric assay is based on the oxidation of iodide (I^−) by lipid hydroperoxide (LOOH) to form triiodide the quantity of which is directly proportional to the amount of LOOH present in the lipid sample. The molar absorptivity (ε) of I3^− is 2.46×10^4 M^−1 cm^−1 at 365 nm. […] All MLV samples were subjected to time-dependent autoxidation by incubating at 37° C. in an uncovered, shaking water bath. This method allows lipid peroxidation to occur gradually without requiring the use of exogenous initiators. Small aliquots (5-100 μL) of each sample were removed, immediately following MLV preparation (0 hr) and after exposing samples to oxidative conditions for 72 or 96 hr, and combined with 1.0 mL of activated CHOD-iodide color reagent. Aliquot volume was reduced with each successive time point to ensure that spectrophotometric readings were within the optimal adsorption range. Test samples were covered and incubated in darkness at room temperature for at least 4 hr. Sample absorbances were then measured against a CHOD blank at 365 nm using a Beckman DU-640 spectrophotometer. […] The molar absorptivity (ε) of I3^− is 2.46×10^4 M^−1 cm^−1 at 365 nm.

[2] = Glucose- and peroxidation-induced cholesterol domain formation, small angle x-ray diffraction (Example 4); settings: 1:30 drug-to-phospholipid, glucose 200 mg/dL
Procedure: Samples were shell-dried under nitrogen gas and placed under vacuum for 1 h to remove residual solvent. […] Lipid suspensions were then vortexed for 3 min at ambient temperature to form MLVs. […] Membrane lipid vesicles were oriented for x-ray diffraction analysis as described by others (e.g., Herbette et al., Biophys. […] Briefly, a 100 μL aliquot (containing 250 μg MLV) was aspirated from each sample and transferred to a Lucite® sedimentation cell fitted with an aluminum foil substrate upon which a given sample could be collected by centrifugation. Samples were then loaded into a Sorvall AH-629 swinging bucket rotor (DuPont Corp., Wilmington, Del.) and centrifuged at 35,000 g, 5° C., for 90 min. After centrifugal orientation, sample supernatants were aspirated and aluminum foil substrates, each supporting a single membrane pellet, were removed from the sedimentation cells. […] The d-space for any given membrane multibilayer is a measurement of the unit cell periodicity of the membrane lipid bilayer (e.g., the distance from the center of one lipid bilayer to the next including surface hydration), and is calculated from Bragg's Law, […], where h is the diffraction order, λ is the wavelength of the x-ray radiation (1.54 Å), d is the membrane lipid bilayer unit cell periodicity, and θ is the Bragg angle equal to one-half the angle between the incident beam and scattered beam. […]

| Structure (SMILES) | effect on LOOH formation / lipid peroxidation ([1]; glucose) | effect on cholesterol domain formation compared to control ([2]; any experimental time point) | antioxidant effect (LOOH formation) ([1]; 1.0 μM, glucose 200 mg/dL, 96 hours) | inhibition of the peroxidative effects of glucose (LOOH formation) ([1]; glucose 200 mg/dL, 72 hours) | inhibition of the peroxidative effects of glucose (LOOH formation) ([1]; glucose 200 mg/dL, 96 hours) | effect on membrane LOOH formation ([1]; EPA at 1.0 and 5.0 μM, glucose) | LOOH formation compared to vehicle, glucose only, glucose and EA, glucose and ETE ([1]; Example 5, model membranes treated with glucose) | inhibition of relative cholesterol domain peak intensity ([2]; 96-hour time point, vs vehicle or vitamin E) |
| --- | --- | --- | --- | --- | --- | --- | --- | --- |
| Cc1c(C)c2c(c(C)c1O)CC[C@@](C)(CCC[C@H](C)CCC[C@H](C)CCCC(C)C)O2 [vitamin E, α-tocopherol, reference compound] | no significant effect on lipid peroxidation | no significant effect on cholesterol domain formation |  |  |  |  |  |  |
| CC/C=C\C/C=C\C/C=C\C/C=C\C/C=C\CCCC(=O)O [EPA, cis-5,8,11,14,17-eicosapentaenoic acid] | significantly inhibited LOOH formation |  | separate and potent antioxidant effects | 88% | 86% | inhibit membrane LOOH formation in a dose-dependent manner | significantly less LOOH formation | more than 99% |
